In publication PMC9000413, “Isolation and Structural Elucidation of Compounds from Pleiocarpa bicarpellata and Their In Vitro Antiprotozoal Activity” (Molecules, 2022):
Read-outs that look alike come from different tables or passages of the source.

Key:
P. falciparum [1] = experiment: In vitro antiplasmodial assay (P. falciparum NF54, intraerythrocytic); settings: for IC50: Plasmodium falciparum, NF54, read-out: IC50 P. falciparum; for selectivity ratio: rat
Protocol: The in vitro activity was assessed on T. b. rhodesiense (STIB900, bloodstream forms), T. cruzi (Tulahuen C2C4, intracellular amastigotes), L. donovani (MHOM-ET-67/L82, axenically grown amastigotes), P. falciparum (NF54, intraerythrocytic), and L6 cells (rat skeletal myoblasts) as previously described. Results are expressed in µg/mL for extracts and in µM for pure compounds.

[2] = Cytotoxicity against rat skeletal myoblast L6 cells; assay type: cell-based
Protocol: (§1) The in vitro activity was assessed on T. b. rhodesiense (STIB900, bloodstream forms), T. cruzi (Tulahuen C2C4, intracellular amastigotes), L. donovani (MHOM-ET-67/L82, axenically grown amastigotes), P. falciparum (NF54, intraerythrocytic), and L6 cells (rat skeletal myoblasts) as previously described [42].

L. donovani = experiment: In vitro antileishmanial assay (L. donovani MHOM-ET-67/L82, axenically grown amastigotes); assay type: cell-based, Leishmania donovani; settings: for IC50: Leishmania donovani, pure compounds and reference drug, mean of two independent assays, axenically grown amastigotes
Protocol: as §1

T. cruzi [3] = experiment: In vitro antitrypanosomal assay (T. cruzi Tulahuen C2C4, intracellular amastigotes); assay type: cell-based; settings: Trypanosoma cruzi
Protocol: as §1

T. b. rhodesiense = experiment: In vitro antitrypanosomal assay (T. b. rhodesiense STIB900, bloodstream forms); assay type: cell-based; settings: Trypanosoma brucei
Protocol: as §1

P. falciparum [4] = test system: P. falciparum; design: method as in PMID 11378289; settings: alkaloids from the methanol root extract of P. mutica; cited from earlier work
L. infantum = test system: L. infantum; design: method as in PMID 25233577; settings: cited from earlier work
T. cruzi [5] = test system: T. cruzi; design: method as in PMID 25233577; settings: cited from earlier work
P. berghei = test system: P. berghei; design: method as in PMID 11378289; settings: in vivo mouse model, daily doses of 25 mg/kg/day, compared to untreated control mice; cited from earlier work
T. cruzi [6] = test system: T. cruzi; design: method as in PMID 26755152; settings: previous study; cited from earlier work
[7] = Selectivity index (SI) = IC50 cytotoxicity/IC50 against parasite, L6 cells vs P. falciparum

Which IC50 (P. falciparum [1]) does the source give for `CCN(CC)CCCC(C)Nc1ccnc2cc(Cl)ccc12` (stereo not shown) [Chloroquine, reference compound] here?
Its IC50 is 0.006 µM.

Which results are given for `CC=C1C[N+]2(C)C3CC1C(CO)(C(=O)OC)C2Cc1c3[nH]c2ccccc12` (stereo not shown) [Compound 6, macusine A]?
IC50 (P. falciparum [1]): 26.9 µM; selectivity ratio (P. falciparum [1]; [7]): 10.1; IC50 ([2]; L6 cells (rat skeletal myoblasts), pure compounds and reference drug, rat skeletal myoblast L6 cells, mean of two independent assays, read-out: IC50 Cytotoxicity): 272 µM; IC50 (L. donovani): > 50 µM

Which IC50 (T. cruzi [3]) does the source give for `CCC1C2CCN3CCC4(C(=C2C(=O)OC)Nc2ccccc24)C13` [Compound 15, methyl (7S,15R,20R,21S)-20-ethyl-5,6,14,15,21-hexahydro-15,21-ethanopyrrolo[5,21-d]carbazole-16-carboxylate-methane] here?
The IC50 was over 50 µM.

And the IC50 (T. b. rhodesiense)?
Its IC50 is over 50 µM.

What about the IC50 (P. falciparum [1]) of the same compound?
The IC50 was over 50 µM.

And the IC50 (L. donovani)?
The IC50 was over 50 µM.

With `COC(=O)[C@@H]1CC23CCCN4CC[C@@]5(c6ccccc6NC15CC2)[C@@H]43` (stereo partly shown) [Compound 2, kopsinine] as the compound, how does the IC50 (P. falciparum [4]) read?
The IC50 was over 200 µM.

Which results are given for `CC[C@H]1[C@@H]2CCN3CC[C@@]4(C(=C2C(=O)OC)Nc2ccccc24)[C@@H]13` [Compound 13, tubotaiwine]?
IC50 (L. infantum): 17.3 µM; Selectivity index (SI) = IC50 cytotoxicity/IC50 against parasite (P. falciparum [1]; L6 cells vs P. falciparum): 23.2; IC50 (P. falciparum [1]): 8.5 µM; selectivity ratio (P. falciparum [1]; [7]): 23.4; activity against T. cruzi (T. cruzi [5]): no activity; IC50 ([2]; rat): 197 µM; IC50 (L. donovani): > 50 µM

Which IC50 ([2]; pure compounds and reference drug, rat skeletal myoblast L6 cells, mean of two independent assays, read-out: IC50 Cytotoxicity) does the source give for `COc1cc([C@@H]2c3cc4c(cc3[C@H](O)[C@H]3COC(=O)[C@H]23)OCO4)cc(OC)c1OC` [Podophyllotoxin, reference compound] here?
The IC50 was 0.027 µM.

With `C/C=C1/CN2CC[C@@]34CN5c6c(cccc6[C@@]67CCN8CCC[C@@]9(CC[C@@]56[C@@H]9C)[C@H]87)[C@@]35[C@@H]2C[C@@H]1[C@@H](C(=O)OC)N5c1ccccc14` [pleiomutinine, reference compound] as the compound, how does the IC50 (P. falciparum [4]) read?
Its IC50 is 5 µM.

For `COC(=O)[C@@H]1CC23CCCN4CC[C@@]5(c6ccccc6N(C(=O)OC)C15CC2)[C@@H]43` (stereo partly shown) [Compound 11, pleiocarpine], which IC50 (P. falciparum [1]) is on record?
The IC50 was 26.6 µM.

What about the selectivity ratio (P. falciparum [1]) of the same compound?
Its selectivity ratio is 5.8.

And the IC50 (P. falciparum [4])?
Its IC50 is over 200 µM.

What about the reduced parasitemia (P. berghei) of the same compound?
Its reduced parasitemia is 28.5%.

What about the IC50 ([2]; rat) of the same compound?
Its IC50 is 156 µM.

What about the IC50 (L. donovani) of the same compound?
Its IC50 is over 50 µM.

What does the source list for `C=C[C@H]1[C@H](O[C@@H]2O[C@H](CO)[C@@H](O)[C@H](O)[C@H]2O)OC=C(C(=O)OC)[C@H]1CC(=O)O` [Compound 16, secoxyloganin]?
IC50 (P. falciparum [1]): > 50 µM; IC50 (T. cruzi [6]): > 150 µM; IC50 ([2]; rat): 294 µM; IC50 (L. donovani): 25.3 µM; selectivity ratio (L. donovani; rat, L6 cells vs L. donovani, read-out: Selectivity index (SI) = IC50 cytotoxicity/IC50 against parasite): 11.6

Which IC50 (L. donovani) does the source give for `CCCCCCCCCCCCCCCCOP(=O)([O-])OCC[N+](C)(C)C` [Miltefosine, reference compound] here?
The IC50 was 0.554 µM.
